Reference: ChEMBL document CHEMBL5226312, “Structural Evolution and Translational Potential for Agonists and Antagonists of Endosomal Toll-like Receptors” (J Med Chem, 2021)
Each block holds one compound with its values, some of them ahead of it.

Experiments:
Splenocyte = experiment: Induction IFN production in C3H/HeJ mouse Splenocytes measured after 18 hrs; format: functional; settings: read-out: MEC
[1] = Antagonist activity at mouse CpG-oligonucleotide in mouse WEHI-231 cells assessed as inhibition of CpG-oligonucleotide induced thymidine uptake preincubated for 16 hrs followed by 3H-thymidine addition and measured after 4 hrs in presence of anti-serum IgM by radioactivity analysis; format: cell-based; settings: WEHI231
Toll-like receptor 8 = biological target: T1, Toll-like receptor 8 (Homo sapiens, UniProt Q9NR97); experiment: Agonist activity at human TLR8 stably expressed in human HEK-Blue hTLR8 cells assessed as activation of NFkappaB by SAP reporter gene based spectrophotometric assay; format: cell-based
T1 sequence (Q9NR97 whole entry): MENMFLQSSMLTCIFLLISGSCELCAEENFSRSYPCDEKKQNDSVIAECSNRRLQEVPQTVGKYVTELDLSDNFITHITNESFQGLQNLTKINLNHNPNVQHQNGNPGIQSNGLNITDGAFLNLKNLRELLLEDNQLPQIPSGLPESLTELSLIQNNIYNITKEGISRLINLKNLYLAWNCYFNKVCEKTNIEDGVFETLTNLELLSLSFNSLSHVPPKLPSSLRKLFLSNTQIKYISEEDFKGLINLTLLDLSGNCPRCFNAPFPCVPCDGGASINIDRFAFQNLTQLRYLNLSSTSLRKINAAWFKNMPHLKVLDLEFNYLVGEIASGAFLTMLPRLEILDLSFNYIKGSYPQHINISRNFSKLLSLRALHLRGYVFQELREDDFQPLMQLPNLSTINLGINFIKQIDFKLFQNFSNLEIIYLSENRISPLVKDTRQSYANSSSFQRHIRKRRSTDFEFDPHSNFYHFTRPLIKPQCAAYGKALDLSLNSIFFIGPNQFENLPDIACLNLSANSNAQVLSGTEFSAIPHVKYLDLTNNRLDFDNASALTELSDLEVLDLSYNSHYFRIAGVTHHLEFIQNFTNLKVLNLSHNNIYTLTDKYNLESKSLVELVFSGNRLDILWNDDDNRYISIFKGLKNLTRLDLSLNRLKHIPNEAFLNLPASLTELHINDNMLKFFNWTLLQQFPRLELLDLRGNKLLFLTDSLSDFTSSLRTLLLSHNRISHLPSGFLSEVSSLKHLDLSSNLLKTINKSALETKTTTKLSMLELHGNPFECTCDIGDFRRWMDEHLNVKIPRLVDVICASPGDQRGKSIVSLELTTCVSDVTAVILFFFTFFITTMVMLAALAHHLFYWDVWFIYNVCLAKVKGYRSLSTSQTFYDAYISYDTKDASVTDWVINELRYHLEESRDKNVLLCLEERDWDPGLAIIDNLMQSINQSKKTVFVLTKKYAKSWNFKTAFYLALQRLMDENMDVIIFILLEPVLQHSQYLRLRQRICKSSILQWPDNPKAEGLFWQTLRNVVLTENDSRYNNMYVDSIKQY

[2] = Antagonist activity at monkey TLR7 expressed in Drosophila S2 cells by ITC analysis; set-up: species or system Macaca mulatta
[3] = Antagonist activity at mouse CpG-oligonucleotide in mouse WEHI-231 cells assessed as inhibition of CpG-oligonucleotide induced thymidine uptake in presence of anti-serum IgM; format: cell-based; settings: WEHI231
Toll-like receptor 7 = biological target: T2, Toll-like receptor 7 (Homo sapiens, UniProt Q9NYK1); experiment: Agonist activity at human TLR7
T2 sequence (Q9NYK1 whole entry): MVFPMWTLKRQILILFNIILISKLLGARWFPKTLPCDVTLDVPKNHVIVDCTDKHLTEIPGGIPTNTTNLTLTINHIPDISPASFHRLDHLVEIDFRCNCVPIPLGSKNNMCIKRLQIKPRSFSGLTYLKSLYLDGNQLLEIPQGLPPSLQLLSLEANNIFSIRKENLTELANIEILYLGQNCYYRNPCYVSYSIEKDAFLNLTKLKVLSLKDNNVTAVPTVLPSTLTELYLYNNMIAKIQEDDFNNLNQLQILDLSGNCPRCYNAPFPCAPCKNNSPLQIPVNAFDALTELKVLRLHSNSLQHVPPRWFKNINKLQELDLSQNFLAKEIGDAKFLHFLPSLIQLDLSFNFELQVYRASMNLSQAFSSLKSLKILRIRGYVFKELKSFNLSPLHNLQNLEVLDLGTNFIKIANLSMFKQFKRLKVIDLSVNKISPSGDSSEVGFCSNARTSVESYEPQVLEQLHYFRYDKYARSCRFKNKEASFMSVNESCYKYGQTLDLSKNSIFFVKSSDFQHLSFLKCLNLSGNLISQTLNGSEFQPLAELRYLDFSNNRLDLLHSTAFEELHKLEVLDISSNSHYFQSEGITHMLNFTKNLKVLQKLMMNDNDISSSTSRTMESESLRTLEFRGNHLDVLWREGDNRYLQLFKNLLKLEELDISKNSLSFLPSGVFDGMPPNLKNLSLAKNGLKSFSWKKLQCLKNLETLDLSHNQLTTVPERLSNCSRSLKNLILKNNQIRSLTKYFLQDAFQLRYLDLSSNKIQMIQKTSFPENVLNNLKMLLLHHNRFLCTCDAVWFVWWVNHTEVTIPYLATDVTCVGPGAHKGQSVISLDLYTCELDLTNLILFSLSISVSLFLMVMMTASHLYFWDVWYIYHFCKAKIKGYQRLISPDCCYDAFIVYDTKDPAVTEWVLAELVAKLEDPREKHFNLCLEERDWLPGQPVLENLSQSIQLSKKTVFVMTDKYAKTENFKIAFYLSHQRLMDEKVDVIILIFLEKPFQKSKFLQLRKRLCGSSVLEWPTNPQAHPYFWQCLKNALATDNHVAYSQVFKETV

SMILES: CCCCOc1nc(N)c2[nH]c(=O)n(Cc3ccccc3)c2n1
minimal effective concentration (Splenocyte): 0.001 µM

SMILES: CCCCOc1nc(N)c2nc(S)n(Cc3ccccc3)c2n1
minimal effective concentration (Splenocyte): 0.001 µM

SMILES: CCCCCc1nc(N)c2[nH]c(=O)n(Cc3ccccc3)c2n1
minimal effective concentration (Splenocyte): 0.01 µM

SMILES: CCCCc1nc2c(N)nc3ccccc3c2s1
EC50 (Toll-like receptor 8): 0.41 µM

SMILES: CCN(CC)CCCC(C)Nc1ccnc2cc(Cl)ccc12 (centres undefined) [CHLOROQUINE]
EC50 [3]: 0.11 µM

SMILES: CC(C)Cn1cnc2c(N)nc3ccccc3c21 [IMIQUIMOD]
EC50 (Toll-like receptor 7): 2.21 µM

Next, values leading:

EC50 [1]: 0.00707 µM
SMILES: CN(C)CCNc1cc(-c2ccc(CN3CCN(C)CC3)cc2)nc2ccccc12

EC50 [1]: 0.00076 µM
SMILES: CN(C)CCNc1cc(-c2ccc(N3CCN(C)CC3)cc2)nc2ccccc12

EC50 [1]: 0.058 µM
SMILES: CN1CCN(Cc2ccc(-c3cc(N4CCN(C)CC4)c4ccccc4n3)cc2)CC1

IC50 [2]: 0.025 µM
SMILES: CCOc1nc(C)c2nc(-c3cncc(F)c3)n(Cc3ccc(CN4C[C@H]5C[C@@H]4CN5C)cc3)c2n1

IC50 [2]: 0.025 µM
SMILES: CCOc1nc(N)c2nc(-c3cncc(F)c3)n(Cc3ccc(CN4C[C@H]5C[C@@H]4CN5C)cc3)c2n1

EC50 [3]: 0.0091 µM
SMILES: CN(C)CCNc1cc(-c2ccc3ccccc3c2)nc2ccccc12

EC50 [3]: 0.00024 µM
SMILES: CN1CCN(Cc2cc(Nc3cc(-c4ccc5ccccc5c4)nc4ccccc34)cc(CN3CCN(C)CC3)c2O)CC1

EC50 [3]: 0.0513 µM
SMILES: CCN(CC)CCCC(C)Nc1cc(-c2ccccc2)nc2ccccc12 (centres undefined)
